Measured values published in PubChem BioAssay (NCI).
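Tested at 5 concentrations; 48 h exposure; 96-well plates; endpoints linearly interpolated, else capped at highest concentration. TGI is the concentration that stops growth completely.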

Columns and labels:
Assay in all cases: growth of human tumour cells (NCI), 48 h
LOX IMVI melanoma = system: LOX IMVI melanoma
CCRF-CEM leukemia = system: CCRF-CEM leukemia
K-562 leukemia = system: K-562 leukemia
MDA-MB-435 = system: MDA-MB-435
SK-OV-3 ovarian = system: SK-OV-3 ovarian
HCT-116 colon = system: HCT-116 colon
MCF7 breast = system: MCF7 breast
HS 578T breast = system: HS 578T breast
HT29 colon = system: HT29 colon
PC-3 prostate = system: PC-3 prostate
UO-31 renal = system: UO-31 renal
U251 CNS = system: U251 CNS
SK-MEL-28 melanoma = system: SK-MEL-28 melanoma
SF-268 CNS = system: SF-268 CNS
OVCAR-8 ovarian = system: OVCAR-8 ovarian
UACC-257 melanoma = system: UACC-257 melanoma
ACHN renal = system: ACHN renal
CAKI-1 renal = system: CAKI-1 renal
SK-MEL-2 melanoma = system: SK-MEL-2 melanoma
NCI-H522 lung = system: NCI-H522 lung
SR leukemia = system: SR leukemia
MOLT-4 leukemia = system: MOLT-4 leukemia
MDA-MB-231 breast = system: MDA-MB-231 breast
A549 NSCLC = system: A549 NSCLC
HOP-62 NSCLC = system: HOP-62 NSCLC
OVCAR-3 ovarian = system: OVCAR-3 ovarian
HCC-2998 colon = system: HCC-2998 colon
NCI-H23 lung = system: NCI-H23 lung
DU-145 prostate = system: DU-145 prostate
SK-MEL-5 melanoma = system: SK-MEL-5 melanoma
NCI/ADR-RES ovarian = system: NCI/ADR-RES ovarian
MALME-3M melanoma = system: MALME-3M melanoma
SNB-19 CNS = system: SNB-19 CNS
NCI-H460 lung = system: NCI-H460 lung
A498 renal = system: A498 renal
NCI-H226 lung = system: NCI-H226 lung
OVCAR-4 ovarian = system: OVCAR-4 ovarian
HCT-15 colon = system: HCT-15 colon
TK-10 renal = system: TK-10 renal
EKVX NSCLC = system: EKVX NSCLC
RPMI-8226 leukemia = system: RPMI-8226 leukemia
SN12C renal = system: SN12C renal
SF-295 CNS = system: SF-295 CNS
SF-539 CNS = system: SF-539 CNS
786-0 renal = system: 786-0 renal
HL-60(TB) leukemia = system: HL-60(TB) leukemia
HOP-92 NSCLC = system: HOP-92 NSCLC
COLO 205 colon = system: COLO 205 colon
RXF 393 renal = system: RXF 393 renal
M14 melanoma = system: M14 melanoma
SNB-75 CNS = system: SNB-75 CNS
T-47D breast = system: T-47D breast
OVCAR-5 ovarian = system: OVCAR-5 ovarian
MDA-N = system: MDA-N
BT-549 breast = system: BT-549 breast
UACC-62 melanoma = system: UACC-62 melanoma
KM12 colon = system: KM12 colon
IGROV1 ovarian = system: IGROV1 ovarian
SW-620 colon = system: SW-620 colon

Measured: TGI

O=C1c2ccccc2C(=O)c2oc(Br)cc21
4.05 µM: HOP-62 NSCLC
0.784 µM: UACC-257 melanoma
3.68 µM: HT29 colon
3.6 µM: T-47D breast
3.16 µM: OVCAR-5 ovarian
6.66 µM: CCRF-CEM leukemia
0.267 µM: MDA-N
3.04 µM: NCI-H522 lung
6.99 µM: RPMI-8226 leukemia
3.08 µM: IGROV1 ovarian
0.684 µM: SNB-75 CNS
2.92 µM: OVCAR-8 ovarian
0.732 µM: HS 578T breast
1.03 µM: A549 NSCLC | SF-295 CNS
1.91 µM: HCT-15 colon
7.32 µM: MDA-MB-231 breast
6.61 µM: SK-OV-3 ovarian
4.27 µM: MOLT-4 leukemia
5.44 µM: NCI/ADR-RES ovarian
1.73 µM: SK-MEL-2 melanoma
0.284 µM: SK-MEL-5 melanoma
4.23 µM: HOP-92 NSCLC
3.43 µM: CAKI-1 renal
2.22 µM: SN12C renal
0.274 µM: MALME-3M melanoma
2.98 µM: 786-0 renal
6.15 µM: TK-10 renal
1.17 µM: HL-60(TB) leukemia
3.47 µM: COLO 205 colon
4.07 µM: EKVX NSCLC
0.934 µM: SK-MEL-28 melanoma
2.85 µM: UO-31 renal
4.77 µM: K-562 leukemia
0.491 µM: DU-145 prostate
2.7 µM: HCT-116 colon
0.463 µM: NCI-H23 lung
5.67 µM: OVCAR-3 ovarian
3.22 µM: ACHN renal | NCI-H226 lung
1.09 µM: SW-620 colon
3.2 µM: KM12 colon
11.1 µM: PC-3 prostate
2.64 µM: U251 CNS | NCI-H460 lung
0.311 µM: MDA-MB-435 | M14 melanoma
4.22 µM: SF-268 CNS
5.78 µM: SR leukemia
2.87 µM: SNB-19 CNS | RXF 393 renal
3.27 µM: HCC-2998 colon
> 100 µM: LOX IMVI melanoma
3.49 µM: A498 renal
1.96 µM: MCF7 breast
3.55 µM: OVCAR-4 ovarian
3.11 µM: BT-549 breast
1.84 µM: SF-539 CNS | UACC-62 melanoma

C=C(C)C12CC3CC/C(=N/O)C(C1)C3(N1CCOCC1)C/C2=N/O (stereo not given)
> 100 µM: all assays above

CN1C(=O)C2C=C3CCCCC3=CC2N(C)C1=O (stereo not given)
not listed: 786-0 renal
> 100 µM: all other assays above

COc1ccc(C(=O)Nc2ccc3oc(-c4ccccc4)nc3c2)cc1
88.5 µM: OVCAR-8 ovarian
89.8 µM: SNB-75 CNS
0.838 µM: UO-31 renal
> 100 µM: all other assays above
